Results reported in US9051575B2, “Alga in which production of photosynthetic products is improved, and use for said alga” (Japan Science and Technology Agency, priority 2010, dated 2015).
Entries after “also recorded” stand apart in the source; their conditions may differ.

How the values were obtained:
Assay type in all cases: cell-based, Chlamydomonas reinhardtii
[1] = test system: GSH1 overexpressing strain; test: Starch production capacity / discharge of starch grains to outside of cells (clouding of culture solution, iodostarch reaction); settings: BSO added to TAP medium, final concentration 8 mM
Experimental: (§1) The GSH1 overexpressing strain produced in Example 1 was cultured under a semi-heterotrophic condition with the use of tris-acetate-phosphate (TAP) medium having pH7 (see Proc. Natl. Acad. Sci. USA, 54, 1665-1669.), and a growth capacity and a starch production capacity of the GSH1 overexpressing strain were evaluated. A CC503 strain (hereinafter referred to as “parent strain (wild-type strain)”) which is a wild-type Chlamydomonas strain was used as a control.
L-Buthionine-sulfoximine (abbreviated as BSO (produced by Sigma-Aldrich Corporation, Model No. B2515) added to TAP medium in Samples 2 and 6 is an inhibitor for GSH synthesis.
(a) of FIG. 1 is a graph showing growth capacities of the respective GSH1 overexpressing strains, and (b) of FIG. 1 is a view showing states of respective culture solutions 309 hours after start of culturing. (a) of FIG. 2 is a graph showing growth capacities of respective parent strains (wild-type strains), and (b) of FIG. 2 is a view showing states of respective culture solutions 215 hours after start of culturing. […] The optical density represented by the vertical axis was measured by a device (manufactured by TAITEC CORPORATION, ODSensor-S/ODBox-A) for measuring an OD value on the basis of a transmission amount of infrared rays (950 nm). […]

[2] = test system: GSH1 overexpressing strain; test: Flow cytometry of particle densities in the culture (TAP medium, semi-heterotrophic); settings: addition of 8 mM BSO, 45 μE/m^2/sec, number of particles in 1 mL culture solution divided by the cube of 10
Experimental: as §1
(§2) Flow cytometry was carried out for more detailed analysis of the states of the GSH1 overexpressing strain of Sample 4 and the parent strain (wild-type strain) of Sample 8. Specifically, the cells of Samples 4 and 8 were irradiated with excitation light of 488 nm, and fluorescence intensity in the vicinity of 600 nm was measured. The fluorescence in the vicinity of 600 nm corresponds to chlorophyll fluorescence. Along with the chlorophyll fluorescence, fluorescent particles (produced by Beckman Coulter Inc., product name: Flow count) were used as an internal control for measuring a cell density. In this way, fluorescence in the range from 525 nm to 700 nm emitted by the excitation light of 488 nm was measured. Further, forward-scattered light and lateral-scattered light were measured so as to measure cell (particle) size and cell (particle) internal complexity.
(§3) Note that the number of cells (particles) shown in Tables 3 and 4, which is expressed by a value obtained by dividing the number of particles contained in 1 mL of the culture solution by the cube of 10, was found on the basis of the value of the internal control.

[3] = test system: parent strain (wild-type strain) CC503; test: as above; settings: addition of 8 mM BSO, 45 μE/m^2/sec, number of particles in 1 mL culture solution divided by the cube of 10
Experimental: as §1, §2, §3

Question: Which “discharge of starch to an outside of the cells” value [1] does the source give for `CCCCS(=N)(=O)CCC(N)C(=O)O` [BSO, L-Buthionine-sulfoximine] here?
Answer: The value was “starch was not discharged to an outside of the cells; also recorded: starch was not discharged into an outside of the cells”.

Question: What about the “density of particles which did not emit chlorophyll-derived fluorescence as a result of irradiation of excitation light (488 nm) (starch grains)” value [2] of the same compound?
Answer: Its value is 602.

Question: What about the “density of particles which emitted chlorophyll-derived fluorescence as a result of irradiation of excitation light (488 nm)” value [2] of the same compound?
Answer: The value was 4,228.

Question: And the “density of particles which did not emit chlorophyll-derived fluorescence as a result of irradiation of excitation light (488 nm) (starch grains)” value [3]?
Answer: Its value is 27.

Question: What about the “density of particles which emitted chlorophyll-derived fluorescence as a result of irradiation of excitation light (488 nm)” value [3] of the same compound?
Answer: The value was 19,633.
